Assay results published in patent US6407116B1, “Nitrogenous fused-ring compounds, process for the preparation of the same, and drugs” (Takeda Chemical Industries, Inc., priority 1997, dated 2002).
Structures can show the parent of a compound that is named as a salt.

Key:
[1] = tested on: histamine-induced dermal vascular hyperpermeability; test: Effect on histamine-induced dermal vascular hyperpermeability in guinea pigs; format: in vivo, guinea pig; conditions: 3 mg/kg oral administration, 1 hour before intradermal histamine, male Hartley guinea pigs; for inhibition in vivo at 3 mg/kg: Cavia porcellus
Description: Effect on Histamine-induced Dermal Vascular Hyperpermeability in Guinea Pigs
Male Hartley guinea pigs (weighing about 500 g) were used. […] After 30 minutes, the animal was hit on its head to make it unconscious, and cut at its neck to sacrifice by exsanguination. The dorsal skin was peeled and examined for the long and short diameters (mm) of each blue spot which were then multiplied to give a product, which was averaged to give a vascular permeability index. Each substance was suspended in 5% gum arabic solution, and given orally in the volume of 0.2 ml/100 g body weight 1 hour before histamine administration. Control animals received the same volume of 5% gum arabic solution. A % inhibition of this reaction was calculated according to [Equation 1].
% Inhibition of histamine-induced dermal vascular hyperpermeability=100×(1-vascular permeability index in treatment group/vascular permeability index in control group) [Equation 1]

guinea-pig eosinophils = test: Chemotaxis inhibition assay: LTB4-induced chemotaxis in guinea-pig eosinophils; format: cell-based; conditions: test substance 1×10^−5 M, LTB4 10^−8 M, 2 hours; for inhibition at 10 µM: Cavia porcellus, Eosinophil
Description: 1) Guinea-pig Eosinophil Preparation
Male Hartley guinea-pigs received 2 ml of equine serum (Bio-Whittaker, Inc) intraperitoneally once a week for successive 8 weeks. 48 hours after the last administration, 75 ml of physiological saline was injected into the peritoneal cavity, and the fluid was recovered and centrifuged at 400 G for 5 minutes. […] Erythrocytes in the isolated cell pellet, if any, were removed by hypotonic treatment (suspended in water for 30 seconds).
2) Chemotaxis Inhibition Assay
600 μl of LTB4 suspended in Hanks-Hepes-HSA (final concentration of 10^−8 M, Cascade Biochemical Ltd.) was placed in the lower compartment of a 24-well plate and kept at 37° C. for 30 minutes in a CO2 gas incubator. After mounting a Chemotaxicell (polycarbonate membrane, pore size 3 μm, thickness 10 μm), which served as an upper compartment, on the 24-well plate described above, 200 μl of eosinophil suspension (5×10^6 cells/ml), which had been incubated at 37° C. for 15 minutes in a thermostat chamber, was added to the upper compartment. After allowing to react for 2 hours in the CO2 gas incubator, the Chemotaxicell was removed, and 60 μl of 2% (w/v) EDTA solution in physiological saline was added to the lower compartment. After cooling on ice, the cells which underwent the chemotaxis into the lower compartment were counted using a blood cell counter (Coulter Counter (trade name)). In the procedure described above, the test substance was dissolved in N,N-dimethylformamide (DMF) and added to the upper and lower compartments at the final concentration of 10^−5 M.
% Chemotaxis inhibition=[…] [Equation 2]
The results are shown in [Table 2].

| SMILES | inhibition in vivo at 3 mg/kg [1] [%] | inhibition at 10 µM (guinea-pig eosinophils) [%] | Inhibition of histamine-induced dermal vascular hyperpermeability (%) [1] [%] | Inhibition (%) of LTB4-induced chemotaxis (guinea-pig eosinophils) [%] | melting point [°C] |
| --- | --- | --- | --- | --- | --- |
| CCOC(=O)C(C)(C)n1c(=O)c2cc(F)ccc2n(CCCCN2CCC(OC(c3ccccc3)c3ccccc3)CC2)c1=O [Example 33, Ethyl 2-[1-[4-(4-diphenylmethoxypiperidino)butyl]-2,4-dioxo-6-fluoro-1,2,3,4-tetrahydroquinazolin-3-yl]isobutyrate hydrochloride] | 88 | 54 | – | – | – |
| N#CCCCCn1c(=O)c2ccccc2n(CCCCN2CCC(OC(c3ccccc3)c3ccccc3)CC2)c1=O [Example 93, 2,4-Dioxo-1-[4-(4-diphenylmethoxypiperidino)butyl]-1,2,3,4-tetrahydroquinazoline-3-valeronitrile] | 84 | 62 | – | – | – |
| O=C(O)CCCCn1c(=O)c2ccccc2n(CCCCN2CCC(OC(c3ccccc3)c3ccccc3)CC2)c1=O [Example 60, 2,4-Dioxo-1-[4-(4-diphenylmethoxypiperidino)butyl]-1,2,3,4-tetrahydroquinazoline-3-valeric acid] | 93 | 65 | – | – | – |
| COC(=O)C(C)(C)n1c(=O)c2ccccc2n(CCCCN2CCC(OC(c3ccccc3)c3ccccc3)CC2)c1=O.Cl [Example 30] | – | – | 88 | 77 | – |
| O=c1[nH]c(=O)n(CCCCN2CCC(OC(c3ccccc3)c3ccccc3)CC2)c2ccccc12 [Example 2, 2,4-Dioxo-1-[4-(4-diphenylmethoxy-1-piperidinyl)butyl]-1,2,3,4-tetrahydroquinazoline] | 88 | 91 | – | – | 131 to 133 |
| O=c1[nH]c(=O)n(CCCCN2CCC(OC(c3ccccc3)c3ccccc3)CC2)c2ccc([N+](=O)[O-])cc12 [Example 12, 2,4-Dioxo-1-[4-(4-diphenylmethoxypiperidino)butyl]-6-nitro-1,2,3,4-tetrahydroquinazoline] | 80 | 66 | – | – | 211 to 213 |
| CCOC(=O)C(C)(C)n1c(=O)c2ccccc2n(CCCCN2CCC(OC(c3ccccc3)c3ccccc3)CC2)c1=O.Cl [Example 27] | – | – | 94 | 52 | – |
